Laboratory results: patent publication US9820966B2, “Stabilized statin formulations” (Cumberland Pharmaceuticals Inc., priority 2010, dated 2017)
Like-named read-outs stand apart in the source and are kept apart here.

Key:
[1] = Precipitation on dilution into water or saline; type: physicochemical
[2] = Solubility in basic solutions without cyclodextrin (HPLC); details: Sample 1: 20 mg AS in 1 mL, 16.54 mM L-Arg; pH 10.71 with L-Arg (L-Arg alone)
[3] = AS in propylene glycol and ethanol (4/1), pH 11.0; in 2 hours
Protocol: The sample was then vortexed, filtered, after which it was analyzed by HPLC.

SMILES | precipitation on dilution ([1]; 100% ethanol solution, diluted 1:1 with saline) | precipitation on dilution ([1]; 100% propylene glycol solution, diluted 1:1 with saline) | resulting concentration [2] | degradation [3] | precipitation on dilution ([1]; Example 12 PG/ethanol/water sample adjusted to pH 7.5, diluted 1:1 into water) | precipitation on dilution ([1]; Example 12 PG/ethanol/water sample adjusted to pH 8.0, diluted 1:1 into water) | precipitation on dilution ([1]; anything less than 40% propylene glycol and 10% ethanol, diluted with normal saline) | precipitation on dilution ([1]; prepared in non-aqueous co-solvents and then diluted into saline) | precipitation on dilution ([1]; propylene glycol and ethanol (4/1), pH 11.0, diluted 1:3 in saline) | degradation (control solution of the same mixture (20% HPβ-CD, pH 8.47), 40° C. for 1 month) | degradation (solubilized with HPβ-CD (20%, pH 8.47), lyophilized with manifold freeze dryer, 40° C. for 1 month) | degradation (solubilized with HPβ-CD, diluted 1:1 into 8% sucrose, lyophilized with shelf freeze dryer, storage 1 month at 40° C.)
CC(C)c1c(C(=O)Nc2ccccc2)c(-c2ccccc2)c(-c2ccc(F)cc2)n1CC[C@@H](O)C[C@@H](O)CC(=O)O [AS, Atorvastatin free acid] | precipitated | precipitated | 1.91 mg/mL | approximately 50% |  |  |  |  |  |  |  | 
CC(C)c1c(C(=O)Nc2ccccc2)c(-c2ccccc2)c(-c2ccc(F)cc2)n1CC[C@@H](O)C[C@@H](O)CC(=O)O [AS—Ca, atorvastatin calcium trihydrate] |  |  |  |  | precipitated | precipitated | precipitation | precipitate | precipitated | ~15.5% | ~3.5% | less than 0.1%
